Source: patent US6362207B1, “Methods of treating viral infections with benzimidazoles” (priority 1995, dated 2002)
Values joined by “and” are separate entries in the source; they are usually repeats but may differ in a detail not shown here. Identical values can stand only once. Like-named read-outs stand apart in the source and are kept apart here.

What was measured:
[1] = system: HT29 colon tumor cells; test: MTT cell viability test, colon tumor cells; assay type: cell-based, human; details: MTT, 5 day incubation
[2] = system: HT29 (colon) cancer cells; test: Apoptosis study (TdT assay) and cell growth; assay type: cell-based, human
Description: (§1) Summary of test results: The extent of apoptosis is measured in human tumor cell lines after treatment for 1, 2, 3 and 4 days with carbendazim. At each of these time points, the cells are harvested and assayed using the terminal deoxynucleotidyl transferase (TdT) assays. Both microscopy and flow cytometry were used for the TdT assay.
(§2) In MCF7, HT29, B16 and SK-MES cell lines, there was a concentration dependent effect on cell growth. […] After completion of the studies on the MCF7 and HT29 cell lines, it was evident that the 0.1 μg/ml concentration had little effect on either apoptosis or cell growth. Therefore subsequent assays were with 5 μg/ml instead of 0.1 μg/ml.

[3] = system: B16 murine melanoma cell line; test: Apoptosis study (TdT assay) and cell growth; assay type: cell-based
Description: as §1, §2
The concentration effects at days 1-4 were much more evident after normalization of the apoptosis for the growth rates.

[4] = system: SK-MES cells (lung); test: Apoptosis study (TdT assay) and cell growth; assay type: cell-based, human
Description: as §1, §2
The growth of SK-MES cells was slowed done by all concentrations of carbendazim past day 1.

[5] = system: DLD-1 (abnormal p53); test: Selectivity in killing p53 abnormal cell lines, cell counts; assay type: cell-based; details: day 7
Description: (§3) Summary of lest results: Pairs of tumors of the same type were chosen, one expressing normal p53 and the other abnormal p53. Breast lines used were MCF7 for the normal p53, V4B, a MCF7 cells transformed with an empty vector, and VM4K, an MCF7 cells transfected with a vector encoding abnormal p53. In the colorectal cancer model HCT116 with a normal p53 was used and DLD-1 was used as the abnormal p53 cell line. The tumor cells were grown the presence and absence of carbendazim for 7 days. Cell growth rates were determined in each group by counting the cell numbers daily using a Coulter counter.

[6] = system: HCT116 (normal p53); test: as above; assay type: cell-based; details: day 7
Description: as §3

[7] = system: MCF7 (normal p53); test: as above; assay type: cell-based; details: day 7
Description: as §3

[8] = system: V4B (MCF7 transformed with empty vector); test: as above; assay type: cell-based; details: day 7
Description: as §3

[9] = system: VM4K (MCF7 transfected with abnormal p53); test: as above; assay type: cell-based; details: day 7
Description: as §3

[10] = system: Prostate cancer model; test: Prostate cancer model, tumor weight; assay type: in vivo, mice; details: c1-c6 = day 22, 26, 29, 33, 36, 39
[11] = system: Rhabdomysarcoma; test: Rhabdomysarcoma model, tumor weight; assay type: in vivo; details: 3000 (mg/kg) group, once weekly p.o.
Excerpt: (§4) The dose response effect of carbendazim in mice infected with various cancer types was studied in standard screening tests.
(§5) The results of these studies conducted to study the dosage response of carbendazim on various cancer types are summarized below. […] Efficacy of carbendazim has been shown in the following cancers:
In the Rhabdomysarcoma model, a childhood cancer, at day 29 carbendazim at doses of 3000, 4000 and 5000 (mg/kg given once weekly, p.o.) is quite effective against this tumor with no toxicity in the 3000 (mg/kg) group. Topotecan (i.p., qd×5) is quite active against this model.

[12] = system: MV522; test: Lung cancer model MV522 after Taxol, tumor weight; assay type: in vivo, mice
Description: as §4, §5
At doses of 2000, 3000, 4000 and 5000 (mg/kg given twice weekly, p.o.) tumor growth was suppressed in a dose response and the tumor was shrunk in the 5000 mg/kg group. Day 1 is the start of the treatment with carbendazim.

[13] = system: B-16 mouse melanoma; details: for Increased Life Span: B16 melanoma
Description: The data in Tables 1, 2 and 3 are reported in T/C which is interpreted using the following scale:
long term survivors for P388 is >30 days, for B16 it is >60 days. The NCI Measure of Success is T/C=125.
This study was performed in black mice injected i.p. with B-16 mouse melanoma which many researchers believe is the most predictive model for efficacy in humans. […] Death is the end point in this model.

[14] = system: MX1 breast cancer tumors implanted subcutaneously; test: Tumor growth reduction in mice models (Table 5), breast; assay type: in vivo; details: MXI-breast
[15] = Oral LD50; details: mouse, in vivo, mice
[16] = system: HIV; test: microbe, parasite or virus in culture; assay type: cell-based
[17] = system: influenza; test: In vitro influenza model; assay type: cell-based
[18] = system: herpes; test: In vitro herpes model; assay type: cell-based

**Q.** Which “EC-50 Result” value ([1]; HT29, first column) does the source give for `COC(=O)Nc1nc2ccccc2[nH]1` [carbendazim, 2-methoxycarbonylamino-benzimidazole] here?
**A.** 0.621 ppm

**Q.** And the “EC-50 Result” value ([1]; HT29, second column)?
**A.** 0.662 ppm

**Q.** What about the apoptosis ([2]; 10 μg/ml, days 3 and 4) of the same molecule?
**A.** > 25%

**Q.** And the cell growth ([2]; below 10 μg/ml)?
**A.** not largely slowed down

**Q.** And the growth rates ([3]; all concentrations)?
**A.** affected the growth rates

**Q.** What about the apoptosis ([3]; days 14 by TdT microscopy and days 2-4 by flow cytometry) of the same molecule?
**A.** Some concentration dependent effects

**Q.** What about the cell growth ([4]; all concentrations, past day 1) of the same molecule?
**A.** slowed done

**Q.** And the percent of apoptosis ([4]; days 1-4 microscopic TdT assay, days 3 and 4 flow cytometry)?
**A.** concentration-response effect

**Q.** What about the “cell counts, % of the control” value ([5]; DLD1, 1 μg/ml) of the same molecule?
**A.** 34%

**Q.** And the “cell counts, % of the control” value ([5]; DLD-1, 5 μg/ml)?
**A.** less than 10%

**Q.** What about the “cell counts, % of the control” value ([5]; DLD-1, 10 μg/ml) of the same molecule?
**A.** less than 10%

**Q.** And the “cell counts, % of the control” value ([6]; HCT 116, 1 μg/ml)?
**A.** 78%

**Q.** And the “cell counts, % of the control” value ([6]; HCT116, 5 μg/ml)?
**A.** less than 10%

**Q.** What about the “cell counts, % of the control” value ([6]; HCT116, 10 μg/ml) of the same molecule?
**A.** less than 10%

**Q.** What about the “cell counts, % of the control” value ([7]; 5 μg/ml) of the same molecule?
**A.** 45%

**Q.** And the “cell counts, % of the control” value ([7]; 10 μg/ml)?
**A.** 36%

**Q.** And the “cell counts, % of the control” value ([8]; 5 μg/ml)?
**A.** less than 10%

**Q.** And the “cell counts, % of the control” value ([8]; 10 μg/ml)?
**A.** less than 10%

**Q.** And the “cell counts, % of the control” value ([9]; 5 μg/ml)?
**A.** less than 10%

**Q.** What about the “cell counts, % of the control” value ([9]; 10 μg/ml) of the same molecule?
**A.** less than 10%

**Q.** And the tumor weight ([10]; 4000 mg/kg p.o. twice a week)?
**A.** 330.5 mg and 347.9 mg and 346.6 mg and 421.1 mg and 464.9 mg and 517 mg

**Q.** What about the tumor weight ([10]; 6000 mg/kg p.o. twice a week) of the same molecule?
**A.** 331.5 mg and 371.7 mg and 421.7 mg and 517.2 mg and 529.9 mg and 595.2 mg

**Q.** What about the toxicity [11] of the same molecule?
**A.** no toxicity

**Q.** What about the tumor weight ([12]; 2000 mg/kg twice weekly p.o., c1-c3 = day 59, 63, 66, 2000 mg/kg, day 59) of the same molecule?
**A.** 214.9 mg

**Q.** And the tumor weight ([12]; 2000 mg/kg twice weekly p.o., c1-c3 = day 59, 63, 66, 2000 mg/kg, day 63)?
**A.** 193.7 mg

**Q.** And the tumor weight ([12]; 2000 mg/kg twice weekly p.o., c1-c3 = day 59, 63, 66, 2000 mg/kg, day 66)?
**A.** 188.9 mg

**Q.** What about the tumor weight ([12]; 3000 mg/kg twice weekly p.o., c1-c3 = day 59, 63, 66, 3000 mg/kg, day 59) of the same molecule?
**A.** 75.4 mg

**Q.** And the tumor weight ([12]; 3000 mg/kg twice weekly p.o., c1-c3 = day 59, 63, 66, 3000 mg/kg, day 63)?
**A.** 77 mg

**Q.** And the tumor weight ([12]; 3000 mg/kg twice weekly p.o., c1-c3 = day 59, 63, 66, 3000 mg/kg, day 66)?
**A.** 94.5 mg

**Q.** What about the T/C ([13]; 500 mg/kg twice weekly) of the same molecule?
**A.** 141

**Q.** What about the “weight change (%)” value ([13]; 500 mg/kg twice weekly) of the same molecule?
**A.** −0.64%

**Q.** And the T/C ([13]; 1000 mg/kg twice weekly)?
**A.** 176

**Q.** And the “weight change (%)” value ([13]; 1000 mg/kg twice weekly)?
**A.** −4.75%

**Q.** What about the T/C ([13]; 1250 mg/kg twice weekly) of the same molecule?
**A.** 124

**Q.** And the “weight change (%)” value ([13]; 1250 mg/kg twice weekly)?
**A.** +1.99%

**Q.** What about the T/C ([13]; 2000 mg/kg twice weekly) of the same molecule?
**A.** 169

**Q.** And the “weight change (%)” value ([13]; 2000 mg/kg twice weekly)?
**A.** −11.63%

**Q.** And the T/C ([13]; 2500 mg/kg twice weekly)?
**A.** 169

**Q.** And the “weight change (%)” value ([13]; 2500 mg/kg twice weekly)?
**A.** +3.16%

**Q.** What about the T/C ([13]; 5000 mg/kg twice weekly) of the same molecule?
**A.** 198

**Q.** What about the “weight change (%)” value ([13]; 5000 mg/kg twice weekly) of the same molecule?
**A.** −0.64%

**Q.** And the “Increased Life Span” value ([13]; 1000 mg/kg)?
**A.** 131%

**Q.** And the “Increased Life Span” value ([13]; 2000 mg/kg)?
**A.** 163%

**Q.** And the “Increased Life Span” value ([13]; 4000 mg/kg)?
**A.** 187%

**Q.** And the “Tumor Growth Decrease (%)” value ([14]; 500 mg/kg)?
**A.** 42%

**Q.** And the “Tumor Growth Decrease (%)” value ([14]; 2500 mg/kg)?
**A.** 37%

**Q.** And the LD50 [15]?
**A.** 11000 mg/kg

**Q.** What about the “therapeutic index (TI), ratio of toxic dose to efficacious dose” value [16] of the same molecule?
**A.** 1.8

**Q.** And the inhibition at 4 µg/mL ([16]; Human immunodeficiency virus 1, read-out: inhibition of viral replication)?
**A.** 100%

**Q.** And the activity [17]?
**A.** no activity

**Q.** What about the activity [18] of the same molecule?
**A.** no activity
